Measured values taken from article PMC8387736 (Drug Design, Development and Therapy, 2021).
Where two headings read alike, the source gives them in different places.

Tests used:
[1] = rats
[2] = system: CYP3As; experiment: Inhibition of midazolam metabolism by avitinib in human liver microsomes; format: in vitro ADME
[3] = biological target: T1, CYP1A2 (Homo sapiens, UniProt P05177); details: HLMs
T1 sequence (P05177 1-516): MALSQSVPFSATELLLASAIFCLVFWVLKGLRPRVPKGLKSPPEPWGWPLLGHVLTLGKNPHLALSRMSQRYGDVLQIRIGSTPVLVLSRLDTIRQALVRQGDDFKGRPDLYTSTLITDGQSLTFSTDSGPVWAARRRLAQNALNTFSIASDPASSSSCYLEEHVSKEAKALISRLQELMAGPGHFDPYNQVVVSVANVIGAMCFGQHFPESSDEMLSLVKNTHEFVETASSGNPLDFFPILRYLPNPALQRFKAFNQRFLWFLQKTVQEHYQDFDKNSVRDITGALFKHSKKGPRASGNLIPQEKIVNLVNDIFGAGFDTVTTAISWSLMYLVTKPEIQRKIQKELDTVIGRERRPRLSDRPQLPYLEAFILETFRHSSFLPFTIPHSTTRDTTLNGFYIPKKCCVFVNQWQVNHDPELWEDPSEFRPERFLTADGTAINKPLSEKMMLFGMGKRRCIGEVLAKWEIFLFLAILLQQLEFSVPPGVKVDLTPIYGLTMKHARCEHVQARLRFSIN

[4] = biological target: T2, CYP2B6 (Homo sapiens, UniProt P20813); details: HLMs
T2 sequence (P20813 1-491): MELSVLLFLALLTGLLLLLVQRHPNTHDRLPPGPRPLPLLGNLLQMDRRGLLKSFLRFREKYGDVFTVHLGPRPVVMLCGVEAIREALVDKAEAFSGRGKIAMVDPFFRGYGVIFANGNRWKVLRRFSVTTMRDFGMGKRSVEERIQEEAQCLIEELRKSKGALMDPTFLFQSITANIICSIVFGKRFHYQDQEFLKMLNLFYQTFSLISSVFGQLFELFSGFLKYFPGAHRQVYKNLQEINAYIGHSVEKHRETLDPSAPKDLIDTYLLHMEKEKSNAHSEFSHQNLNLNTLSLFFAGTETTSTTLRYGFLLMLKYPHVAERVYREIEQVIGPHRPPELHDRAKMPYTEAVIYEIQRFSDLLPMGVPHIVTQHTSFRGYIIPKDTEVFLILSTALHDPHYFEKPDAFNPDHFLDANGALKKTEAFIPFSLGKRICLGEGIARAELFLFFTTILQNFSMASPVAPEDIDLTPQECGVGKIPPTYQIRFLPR

[5] = biological target: T3, CYP2C9 (Homo sapiens, UniProt P11712); details: HLMs
T3 sequence (P11712 whole entry): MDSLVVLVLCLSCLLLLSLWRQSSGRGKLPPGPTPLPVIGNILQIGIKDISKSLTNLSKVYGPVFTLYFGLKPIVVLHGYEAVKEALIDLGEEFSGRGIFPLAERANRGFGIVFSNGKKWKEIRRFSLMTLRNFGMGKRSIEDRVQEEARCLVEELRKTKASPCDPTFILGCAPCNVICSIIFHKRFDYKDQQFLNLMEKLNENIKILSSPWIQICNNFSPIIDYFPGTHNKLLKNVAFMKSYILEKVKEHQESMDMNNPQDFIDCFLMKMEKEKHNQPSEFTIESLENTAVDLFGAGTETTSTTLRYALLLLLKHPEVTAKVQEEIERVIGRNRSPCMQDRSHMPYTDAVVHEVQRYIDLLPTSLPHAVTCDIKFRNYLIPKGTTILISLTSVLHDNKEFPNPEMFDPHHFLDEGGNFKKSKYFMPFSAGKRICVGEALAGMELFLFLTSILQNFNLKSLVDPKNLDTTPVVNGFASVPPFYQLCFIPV

[6] = biological target: T4, CYP2D6 (Homo sapiens, UniProt P10635); details: HLMs
T4 sequence (P10635 whole entry): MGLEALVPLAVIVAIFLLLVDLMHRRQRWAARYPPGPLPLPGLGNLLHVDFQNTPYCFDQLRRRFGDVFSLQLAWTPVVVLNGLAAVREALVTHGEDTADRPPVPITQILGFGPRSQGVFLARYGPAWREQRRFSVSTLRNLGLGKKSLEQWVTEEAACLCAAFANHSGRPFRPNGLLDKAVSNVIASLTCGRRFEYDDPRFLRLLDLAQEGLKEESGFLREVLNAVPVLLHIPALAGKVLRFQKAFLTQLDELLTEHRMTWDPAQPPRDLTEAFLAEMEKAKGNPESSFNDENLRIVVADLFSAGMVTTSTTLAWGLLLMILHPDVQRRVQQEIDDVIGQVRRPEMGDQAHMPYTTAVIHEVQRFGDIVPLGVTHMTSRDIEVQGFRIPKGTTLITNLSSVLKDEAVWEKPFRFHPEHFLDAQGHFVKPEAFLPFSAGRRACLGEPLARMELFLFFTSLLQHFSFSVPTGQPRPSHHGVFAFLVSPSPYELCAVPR

[7] = biological target: T5, CYP2E1 (Homo sapiens, UniProt P05181); details: HLMs
T5 sequence (P05181 whole entry): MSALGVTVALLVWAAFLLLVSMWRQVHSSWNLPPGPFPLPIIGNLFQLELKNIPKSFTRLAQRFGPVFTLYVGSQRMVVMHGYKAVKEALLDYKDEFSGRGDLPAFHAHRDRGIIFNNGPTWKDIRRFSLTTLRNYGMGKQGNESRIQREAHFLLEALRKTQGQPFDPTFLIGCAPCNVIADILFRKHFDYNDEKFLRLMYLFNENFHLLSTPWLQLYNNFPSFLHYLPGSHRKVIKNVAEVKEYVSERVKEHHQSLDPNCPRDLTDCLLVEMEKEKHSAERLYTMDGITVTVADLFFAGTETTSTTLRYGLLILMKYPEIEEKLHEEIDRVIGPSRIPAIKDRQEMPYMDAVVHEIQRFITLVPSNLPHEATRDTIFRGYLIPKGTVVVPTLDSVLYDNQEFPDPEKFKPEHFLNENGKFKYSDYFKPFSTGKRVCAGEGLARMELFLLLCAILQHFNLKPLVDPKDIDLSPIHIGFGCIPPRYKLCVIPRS

[8] = biological target: T1, CYP1A2; experiment: biochemical
[9] = biological target: T2, CYP2B6; experiment: biochemical
[10] = biological target: T3, CYP2C9; experiment: biochemical
[11] = biological target: T4, CYP2D6; experiment: biochemical
[12] = biological target: T5, CYP2E1; experiment: biochemical
[13] = biological target: T6, cyp2b1 (Rattus norvegicus, UniProt P00176); experiment: Inhibition of bupropion metabolism by avitinib in rat liver microsomes
T6 sequence (P00176 1-491): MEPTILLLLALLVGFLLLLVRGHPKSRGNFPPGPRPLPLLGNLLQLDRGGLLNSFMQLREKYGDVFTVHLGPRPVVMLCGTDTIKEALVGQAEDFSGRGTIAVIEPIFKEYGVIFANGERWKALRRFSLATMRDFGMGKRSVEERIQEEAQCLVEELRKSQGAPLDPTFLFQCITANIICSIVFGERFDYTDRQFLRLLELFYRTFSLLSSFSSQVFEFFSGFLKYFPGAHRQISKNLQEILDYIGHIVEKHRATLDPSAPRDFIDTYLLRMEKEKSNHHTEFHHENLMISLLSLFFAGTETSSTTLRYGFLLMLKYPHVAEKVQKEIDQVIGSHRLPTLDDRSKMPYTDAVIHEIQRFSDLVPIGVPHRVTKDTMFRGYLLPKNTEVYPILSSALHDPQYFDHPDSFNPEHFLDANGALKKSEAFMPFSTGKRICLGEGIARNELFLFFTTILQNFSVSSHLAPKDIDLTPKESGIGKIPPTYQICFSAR

[14] = system: cyp3as; experiment: Inhibition of midazolam metabolism by avitinib in rat liver microsomes
[15] = biological target: T7, cyp1a2 (Rattus norvegicus, UniProt P04799); experiment: Inhibition of phenacetin metabolism by avitinib in rat liver microsomes
T7 sequence (P04799 1-513): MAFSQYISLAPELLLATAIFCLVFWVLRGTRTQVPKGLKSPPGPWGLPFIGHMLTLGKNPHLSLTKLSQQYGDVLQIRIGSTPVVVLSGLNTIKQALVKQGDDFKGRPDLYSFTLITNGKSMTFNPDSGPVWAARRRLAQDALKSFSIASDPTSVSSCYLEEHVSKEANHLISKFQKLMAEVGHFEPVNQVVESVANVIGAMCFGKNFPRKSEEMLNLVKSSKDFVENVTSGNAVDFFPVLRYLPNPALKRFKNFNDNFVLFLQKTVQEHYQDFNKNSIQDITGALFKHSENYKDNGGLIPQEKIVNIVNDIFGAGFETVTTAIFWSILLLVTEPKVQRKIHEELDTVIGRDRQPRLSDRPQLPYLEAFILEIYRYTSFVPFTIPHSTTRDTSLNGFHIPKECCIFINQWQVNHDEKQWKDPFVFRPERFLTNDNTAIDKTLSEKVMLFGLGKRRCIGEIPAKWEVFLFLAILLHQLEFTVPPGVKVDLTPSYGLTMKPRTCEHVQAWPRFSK

[16] = biological target: T8, cyp2c11 (Rattus norvegicus, UniProt P08683); experiment: Inhibition of tolbutamide metabolism by avitinib in rat liver microsomes
T8 sequence (P08683 1-500): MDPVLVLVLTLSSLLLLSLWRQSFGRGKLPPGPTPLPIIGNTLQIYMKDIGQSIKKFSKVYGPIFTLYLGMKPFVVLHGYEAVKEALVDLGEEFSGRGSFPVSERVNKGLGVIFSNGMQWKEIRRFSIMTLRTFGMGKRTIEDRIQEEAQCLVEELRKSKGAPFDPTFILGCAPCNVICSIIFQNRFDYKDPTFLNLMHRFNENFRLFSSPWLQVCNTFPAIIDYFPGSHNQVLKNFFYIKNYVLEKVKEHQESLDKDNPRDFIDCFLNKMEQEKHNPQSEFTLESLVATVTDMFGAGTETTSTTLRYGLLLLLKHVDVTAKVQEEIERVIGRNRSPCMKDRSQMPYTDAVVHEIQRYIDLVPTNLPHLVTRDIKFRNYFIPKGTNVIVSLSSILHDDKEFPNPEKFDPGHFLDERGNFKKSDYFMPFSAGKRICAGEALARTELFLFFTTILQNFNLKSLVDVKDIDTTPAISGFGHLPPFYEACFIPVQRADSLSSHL

[17] = biological target: cyp2e1 (Rattus norvegicus, UniProt P05182); experiment: Inhibition of chlorzoxazone metabolism by avitinib in rat liver microsomes
Chain of cyp2e1 (P05182 whole entry): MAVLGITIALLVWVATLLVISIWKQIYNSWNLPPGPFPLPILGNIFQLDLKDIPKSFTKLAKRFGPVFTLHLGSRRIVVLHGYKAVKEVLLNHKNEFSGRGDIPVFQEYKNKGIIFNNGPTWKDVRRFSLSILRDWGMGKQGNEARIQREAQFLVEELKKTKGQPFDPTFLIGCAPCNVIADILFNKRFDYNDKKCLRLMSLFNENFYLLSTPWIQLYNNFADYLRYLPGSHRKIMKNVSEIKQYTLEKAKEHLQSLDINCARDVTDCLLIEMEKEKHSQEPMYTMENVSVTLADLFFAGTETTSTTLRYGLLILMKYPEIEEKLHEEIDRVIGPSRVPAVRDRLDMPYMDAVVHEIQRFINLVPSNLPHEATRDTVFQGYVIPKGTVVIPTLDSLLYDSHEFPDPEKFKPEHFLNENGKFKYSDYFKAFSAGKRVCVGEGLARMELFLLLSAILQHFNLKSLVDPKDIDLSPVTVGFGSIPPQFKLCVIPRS

[18] = biological target: T9, cyp2d1 (Rattus norvegicus, UniProt P10633); experiment: Inhibition of dextromethorphan metabolism by avitinib in rat liver microsomes
T9 sequence (P10633 1-504): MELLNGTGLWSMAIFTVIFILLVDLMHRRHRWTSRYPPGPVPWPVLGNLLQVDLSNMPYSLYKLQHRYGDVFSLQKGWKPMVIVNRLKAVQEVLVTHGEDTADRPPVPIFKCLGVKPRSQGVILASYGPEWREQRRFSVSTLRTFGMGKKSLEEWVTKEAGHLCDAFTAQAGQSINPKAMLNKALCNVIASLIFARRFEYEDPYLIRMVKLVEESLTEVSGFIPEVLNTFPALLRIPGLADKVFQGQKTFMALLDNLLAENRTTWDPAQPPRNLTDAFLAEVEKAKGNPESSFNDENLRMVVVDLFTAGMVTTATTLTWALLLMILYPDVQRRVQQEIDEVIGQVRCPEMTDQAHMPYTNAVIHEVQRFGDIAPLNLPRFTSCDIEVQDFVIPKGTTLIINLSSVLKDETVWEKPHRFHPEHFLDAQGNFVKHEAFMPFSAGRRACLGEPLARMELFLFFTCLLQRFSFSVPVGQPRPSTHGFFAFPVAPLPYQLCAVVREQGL

[19] = multiple-doses 30 mg/kg avitinib (7 days)
[20] = avitinib 30 mg/kg multiple-doses or single-dose vs control

CC(NC(C)(C)C)C(=O)c1cccc(Cl)c1 (stereo not drawn) [Bupropion]
reduction of CLz/F compared with control group [1, 19]: 57.54% | reduction of Vz/F compared with control group [1, 19]: 62.74% | reduction of CLz/F compared with control group ([1]; single-dose 30 mg/kg avitinib): 53.96% | reduction of Vz/F compared with control group ([1]; single-dose 30 mg/kg avitinib): 64.59%

COc1ccc2c(c1)[C@]13CCCC[C@@H]1[C@H](C2)N(C)CC3 [Dextromethorphan]
change in Tmax values after avitinib (in words) [1, 20]: No significant changes | reduction of CLz/F compared with control group [1, 19]: 82.22% | reduction of Vz/F compared with control group [1, 19]: 73.53% | reduction of CLz/F compared with control group ([1]; single-dose 30 mg/kg avitinib): 67.78% | reduction of Vz/F compared with control group ([1]; single-dose 30 mg/kg avitinib): 69.7%

Cc1ncc2n1-c1ccc(Cl)cc1C(c1ccccc1F)=NC2 [Midazolam]
difference in Cmax after avitinib (in words) [1, 20]: No significant difference

CCOc1ccc(NC(C)=O)cc1 [Phenacetin]
change in t1/2 values after avitinib (in words) [1, 20]: no significant change | reduction of CLz/F compared with control group [1, 19]: 63.17% | reduction of Vz/F compared with control group [1, 19]: 63.09% | reduction of CLz/F compared with control group ([1]; single-dose 30 mg/kg avitinib): 39.52%

CCCCNC(=O)NS(=O)(=O)c1ccc(C)cc1 [Tolbutamide]
difference in Cmax after avitinib (in words) [1, 20]: No significant difference

C=CC(=O)Nc1cccc(Oc2nc(Nc3ccc(N4CCN(C)CC4)c(F)c3)nc3[nH]ccc23)c1 [avitinib, Avitinib]
inhibitory effect on CYP3As (grade in words) ([2]; HLMs): weak | IC50 at 30 min ([2]; human, human liver microsomes, probe midazolam (5 μM)): 59.6 µM | inhibitory effect on CYP1A2 (grade in words) [3]: weak | inhibitory effect on CYP2B6 (grade in words) [4]: weak | inhibitory effect on CYP2C9 (grade in words) [5]: moderate | inhibitory effect on CYP2D6 (grade in words) [6]: weak | inhibitory effect on CYP2E1 (grade in words) [7]: weak | IC50 [8]: 48.4 µM | IC50 [9]: 22.6 µM | IC50 [10]: 6.91 µM | IC50 [11]: 56.6 µM | IC50 [12]: 57.1 µM | IC50 [13]: 6.39 µM | inhibitory effect on cyp2b1 (grade in words) ([13]; RLMs): moderate | inhibitory effect on cyp3as (grade in words) ([14]; RLMs): weak | IC50 at 30 min ([14]; male, Sprague-Dawley, rat, rat liver microsomes, probe midazolam (5 μM)): 27.6 µM | IC50 [15]: 15.8 µM | inhibitory effect on cyp1a2 (grade in words) ([15]; RLMs): weak | IC50 [16]: 42.2 µM | inhibitory effect on cyp2c11 (grade in words) ([16]; RLMs): weak | IC50 [17]: 23.2 µM | inhibitory effect on cyp2e1 (grade in words) ([17]; RLMs): weak | IC50 [18]: 44.4 µM | inhibitory effect on cyp2d1 (grade in words) ([18]; RLMs): weak
